Results reported in article PMC5607274, “An iterative compound screening contest method for identifying target protein inhibitors using the tyrosine-protein kinase Yes” (Scientific Reports, 2017).

Molecular target: T1, human recombinant Yes [a.a. 2–543 (end)] (Homo sapiens, UniProt P07947)
T1 construct: human recombinant Yes [a.a; 2–543 (end)]; purchased BPS Bioscience 40488
Experiment: ADP-Glo kinase assay, inhibition rates of Yes phosphorylation activity (first and second screening)
Assay type: biochemical
Settings: first screening; mean of n = 4 wells; 10 μmol L−1 compound
Method in brief: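 ADP-Glo luminescence measured inhibition of human recombinant Yes (a.a. 2–543) phosphorylation activity. In the first screen, each compound ran in 4 wells and inhibition rates were averaged. The second screen retested hits as compounds dissolved from fresh powder.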

T1 sequence (P07947 2-543): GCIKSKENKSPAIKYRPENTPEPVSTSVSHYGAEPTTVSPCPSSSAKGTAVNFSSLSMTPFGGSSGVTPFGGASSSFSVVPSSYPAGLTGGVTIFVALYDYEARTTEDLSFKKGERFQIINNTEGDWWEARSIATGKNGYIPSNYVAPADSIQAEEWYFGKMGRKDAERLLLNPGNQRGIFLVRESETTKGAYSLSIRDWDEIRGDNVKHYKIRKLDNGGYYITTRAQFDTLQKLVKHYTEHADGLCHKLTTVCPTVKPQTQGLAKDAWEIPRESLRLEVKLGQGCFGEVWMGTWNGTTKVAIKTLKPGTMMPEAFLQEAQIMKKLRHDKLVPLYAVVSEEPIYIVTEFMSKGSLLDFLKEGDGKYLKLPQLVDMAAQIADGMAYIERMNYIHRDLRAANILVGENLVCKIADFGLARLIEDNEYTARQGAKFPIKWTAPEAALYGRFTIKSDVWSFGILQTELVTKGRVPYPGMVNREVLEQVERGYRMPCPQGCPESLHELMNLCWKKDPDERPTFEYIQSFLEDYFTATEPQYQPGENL

| Compound | First screening IR (inhibition rate) [%] |
| --- | --- |
| CCOc1ccc(NC(=O)c2ccccc2NC(=O)CN2CCOCC2)cc1 [Compound Z46179735] | 14 |
| Cc1cc(C)c(C(=O)CSc2nnc(-c3c[nH]c4ccccc34)n2CC2CCCO2)c(C)c1 (centres unmarked) [Compound Z18647134] | -1 |
| Cc1cc(/C=N/Nc2nc(-c3ccc(F)cc3)cs2)c(C)n1-c1cc(Cl)ccc1Cl [Compound Z56791351] | -8 |
| COc1ccc(-c2cc3c4ccccc4oc4nc(=N)c(C#N)c([nH]2)c43)cc1 [Compound Z85934217] | 5 |
| Cn1c(=O)[nH]c(=O)c2c1nc(N1CCC(Cc3ccccc3)CC1)n2CCSc1nnnn1-c1ccccc1 [Compound Z239083338] | 2 |
| CC(C)(C)c1cc(-n2c(-c3cccnc3)nc3cc4c(cc32)OCCO4)cc(C(C)(C)C)c1O [Compound Z56793119] | 6 |
| Cn1c(=O)[nH]c(=O)c2c1nc(N1CCN(Cc3ccccc3)CC1)n2CCSc1nnnn1-c1ccccc1 [Compound Z239092730] | 47 |
| Cc1ccc(S(=O)(=O)N2CCN(S(=O)(=O)c3ccc(C)c(C)c3)CC2)cc1C [Compound Z45415135] | -5 |
| COc1ccccc1Nc1ncnc(N)n1 [Compound Z56799636] | -3 |
| NC(=O)C1CCCN(c2nc(-c3ccncc3)nc3ccccc23)C1 (centres unmarked) [Compound Z239623050] | 13 |
| CC(C)(C)c1ccc(OCc2nnc(SCC(=O)N3CCC(c4ccccc4)=N3)n2N)cc1 [Compound Z24578166] | 40 |
| COc1cc(/C=C2/CC(C)Cc3c2nc2ccccc2c3C(=O)O)cc(Cl)c1O (centres unmarked) [Compound Z46108144] | 3 |
| O=C(/C=C/c1ccsc1)NC(c1ccccc1)c1cccs1 (centres unmarked) [Compound Z89582531] | 1 |
| Cc1cc(C)cc(C(=O)N(c2cc(C)cc(C)c2)C2C=CS(=O)(=O)C2)c1 (centres unmarked) [Compound Z166605882] | 34 |
| O=C(COc1ccccc1)NCc1nc2ccccc2[nH]1 [Compound Z26782031] | -12 |
| COc1ccc(-c2cc(NC(=O)C3CCC(=O)N3)ccc2OC(F)F)cc1 (centres unmarked) [Compound Z70775126] | -6 |
| COc1cc(C(=O)NC(C)c2ccc(-n3ccnc3)cc2)cc(Cl)c1OC(C)C (centres unmarked) [Compound Z27306302] | 7 |
| CN1C/C(=C/c2ccc3c(c2)OCO3)c2nc3ccccc3c(C(=O)O)c2C1 [Compound Z46114673] | -9 |
| N#C/C(=C(/O)COC(=O)CCc1ccccc1)c1nc2ccccc2[nH]1 [Compound Z18264769] | 5 |
| CN(C)c1nc(N)nc(CSCCOc2ccc(F)cc2)n1 [Compound Z197453372] | -8 |
| O=C(O)c1ccc2nc3c(nc2c1)-c1cccc2cccc-3c12 [Compound Z55723243] | 15 |

| Compound | First screening IR (inhibition rate) [%] |
| --- | --- |
| Cc1ccc(-n2c(C)c(C=O)c3c2CCc2cn(-c4ccccc4)nc2-3)cc1 [Compound Z56788048] | -7 |
| Cc1c(-c2ccc(O)cc2)nc2ccc(Cl)cc2c1-c1ccccc1Cl.Cl [Compound Z48951741] | 40 |
| N#Cc1ccc(CN2CCN(Cc3c(-c4ccccc4)nc4sccn34)CC2)cc1 [Compound Z89137945] | -31 |
| Cc1cc(C)c(NC(=O)C2CCN(c3ncnc4sc(C)c(C)c34)CC2)c(C)c1 [Compound Z57042877] | 0 |
| CC(NC(=O)Nc1ccc(F)cc1F)c1ccc(-n2cncn2)cc1 (centres unmarked) [Compound Z86212654] | -3 |
| CCCn1c(C)cc(-c2csc(NC(=O)CCN3C(=O)COc4ccccc43)n2)c1C [Compound Z90896104] | -7 |
| CC(C)(C)NC(=O)CN1CCN(C(=O)CSc2nc3ccccc3c(=O)n2-c2ccccc2)CC1 [Compound Z65695011] | 57 |
| c1csc(-c2noc(CSc3nnc(C4CC4)n3C3CC3)n2)c1 [Compound Z90118492] | 4 |
| COc1ccc(Nc2ncnc(N)n2)cc1 [Compound Z56938001] | 14 |
| CC(Sc1nc2nn(-c3ccccc3)c(=O)c-2c2n1CCCCC2)C(=O)NC(=O)NC1CCCCC1 (centres unmarked) [Compound Z18614891] | 7 |
| O=S1(=O)CCC(S(=O)(=O)Cl)C1 (centres unmarked) [Compound Z57163399] | -7 |
| CC(OC(=O)c1ccc(-c2ccc(O)cc2)cc1)C(=O)c1ccc(F)c(F)c1 (centres unmarked) [Compound Z54379277] | 27 |
| Cc1cccc(N2CCN(C(=O)C3CCN(C(=O)C4CC4)CC3)CC2)c1C [Compound Z26849648] | -2 |
| CN(C)c1nc(N)nc(CSc2nnc(-c3ccccc3)n2C)n1 [Compound Z193722710] | 6 |
| O=C(CN1CCN(S(=O)(=O)c2cccc(Cl)c2Cl)CC1)NC1CCCCCC1 [Compound Z46278335] | -12 |
| O=S(=O)(Cl)c1ccc(S(=O)(=O)N2CCCC2)cc1 [Compound Z56979291] | 9 |
| Cc1nc(-c2cccc(NC(=O)CC(NC(N)=O)c3ccc(Cl)cc3)c2)cs1 (centres unmarked) [Compound Z52058293] | -6 |
| NS(=O)(=O)c1cccc(S(=O)(=O)N2CCCCC2)c1 [Compound Z237744790] | -8 |
| CC(=O)c1c[nH]c(C(=O)NCc2csc(-c3ccccc3)n2)c1 [Compound Z236994250] | 4 |
| Cc1ccccc1Nc1nc(N)nc(CSc2ccccc2Cl)n1 [Compound Z18459341] | 17 |
| CCN(CC)S(=O)(=O)c1c[nH]c(C(=O)NCc2nc(C)cs2)c1 [Compound Z225896678] | 9 |

More lines, now with the values ahead:

| First screening IR (inhibition rate) [%] | Compound |
| --- | --- |
| -2 | Cc1ccc(C(=O)Nc2ccc(OCc3ccccn3)c(F)c2)cn1 [Compound Z1318975474] |
| -18 | NC(=O)c1cc(NC(=O)c2cc(-c3ccccc3Cl)n[nH]2)ccc1F [Compound Z368298320] |
| 29 | CCCCn1nc(C)c(C(=O)N2CCC(C)(CN3CCN(C)CC3)CC2)c1Cl [Compound Z1667221615] |
| -8 | Cc1c(C(=O)N(C2CCC(C)CC2)C2CC2)cnn1-c1ccc(=O)[nH]n1 (centres unmarked) [Compound Z908597782] |
| -4 | CS(=O)(=O)CS(=O)(=O)C(F)(F)F [Compound Z540725378] |
| -9 | CCCCCNS(=O)(=O)CCS(C)(=O)=O [Compound Z1262455598] |
| 12 | COc1cccc(OCCN2CCN(c3cc(C(C)(C)C)nc4c(-c5ccc(Cl)cc5)c(C)nn34)CC2)c1 [Compound Z431973470] |
| 5 | CC(C)c1cc(NS(=O)(=O)c2cc(F)c(Br)cc2F)n[nH]1 [Compound Z1551172092] |
| -8 | CC(Sc1ncc(CO)n1C)c1cn(-c2ccccc2)nn1 (centres unmarked) [Compound Z1419493384] |
| -1 | COc1cccc(/C(O)=C2\C(=O)C(=O)N(CCCn3ccnc3)C2c2cccc([N+](=O)[O-])c2)c1 (centres unmarked) [Compound Z316156320] |
| -3 | CC(C)S(=O)(=O)CCS(=O)(=O)CC1CCCCC1 [Compound Z1347351162] |
| 5 | CCCn1c(=O)[nH]c(=O)c2cc(C(=O)N(CC)Cc3ccc4c(c3)OCO4)cnc21 [Compound Z284160386] |
| 2 | COCC(=O)N1CCCCCC1C1CCN(c2ncc(C(N)=O)cc2Cl)CC1 (centres unmarked) [Compound Z1170427223] |
| 4 | Clc1ccccc1Cn1ncc2c(NCCc3ccccc3)ncnc21 [Compound Z1172235413] |
| 0 | NC(=O)C(Nc1cnn(Cc2ccccc2)c1)c1ccc(F)cc1 (centres unmarked) [Compound Z1686719326] |
| 12 | FC(F)(F)c1ccnc(Nc2cccc(/C=C/c3ccccn3)c2)n1 [Compound Z285694006] |
| 19 | O=C(NCCCc1c[nH]c2ccccc12)Nc1ccncc1F [Compound Z1677751393] |
| -6 | Cc1c(C)c(C)c(C(=O)OCC(=O)NCC(=O)N2CCCC2)c(C)c1C [Compound Z291423432] |
| 9 | N#Cc1ccc(C(=O)OCc2ccc(Br)cn2)[nH]1 [Compound Z1616590793] |
| -2 | Cc1ccccc1CN(C)S(=O)(=O)C1CCS(=O)(=O)CC1 [Compound Z968740596] |
| -22 | O=C(NCc1ccnc(Oc2ccccc2)c1)c1ccc(OCc2cccnc2)cc1 [Compound Z424307182] |
| -2 | Cn1ncc2c(N3CCOC(c4ccc(F)cc4)C3)ncnc21 (centres unmarked) [Compound Z319092016] |
| 6 | CCCN(Cc1cccnc1OC)C1CCN(C(=O)c2ccccc2)CC1 [Compound Z1415907924] |
| 4 | C#CC(COC)NS(=O)(=O)CCCS(C)(=O)=O (centres unmarked) [Compound Z1787994415] |
| 51 | CCN1CCN(Cc2ccc(NC(=O)C3CCCN3C(=O)c3ccc4ccccc4c3O)cc2)CC1 (centres unmarked) [Compound Z992207680] |
| 0 | CCc1cc(N2CCC(NCc3c(Cl)cccc3N3CCCC3)CC2)ncn1 [Compound Z1549038619] |
| 2 | CC(C)S(=O)(=O)CCS(=O)(=O)Cc1ccccc1 [Compound Z1347350572] |
| 4 | Cn1c(CSc2n[nH]c(-c3ccccc3F)n2)nc2ccccc21 [Compound Z982182198] |
| 21 | CN(C)c1ccc(-c2cncc(C(=O)NCC3CC=CCC3)c2)cc1 (centres unmarked) [Compound Z1418841673] |
